Target: T1, SIRT1 (Homo sapiens, UniProt Q96EB6)
T1 sequence (Q96EB6 1-747): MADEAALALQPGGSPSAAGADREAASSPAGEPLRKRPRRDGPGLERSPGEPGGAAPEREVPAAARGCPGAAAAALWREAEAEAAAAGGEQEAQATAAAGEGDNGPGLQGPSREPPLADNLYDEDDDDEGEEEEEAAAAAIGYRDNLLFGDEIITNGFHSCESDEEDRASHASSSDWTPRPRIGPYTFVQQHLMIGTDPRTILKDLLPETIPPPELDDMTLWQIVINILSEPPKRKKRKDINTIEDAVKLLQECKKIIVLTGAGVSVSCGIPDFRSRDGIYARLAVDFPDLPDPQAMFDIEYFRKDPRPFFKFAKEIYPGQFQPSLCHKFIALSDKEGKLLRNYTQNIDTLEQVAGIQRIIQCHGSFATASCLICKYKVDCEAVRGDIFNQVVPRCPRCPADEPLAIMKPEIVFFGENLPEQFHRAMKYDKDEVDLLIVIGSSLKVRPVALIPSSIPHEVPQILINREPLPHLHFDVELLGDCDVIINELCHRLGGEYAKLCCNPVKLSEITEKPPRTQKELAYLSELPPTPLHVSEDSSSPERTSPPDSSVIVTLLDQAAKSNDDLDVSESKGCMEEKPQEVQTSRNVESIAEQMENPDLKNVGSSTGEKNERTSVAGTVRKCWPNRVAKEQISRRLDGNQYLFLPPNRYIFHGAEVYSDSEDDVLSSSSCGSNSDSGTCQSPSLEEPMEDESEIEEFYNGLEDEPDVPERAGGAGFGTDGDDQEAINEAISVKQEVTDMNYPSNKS
Experiment: Trp mass spectrometry assay (SIRT1 activation)
Assay type: biochemical
Details: Trp mass spectrometry assay; for Tryp AVG EC1.5 (μM): EC1.5 = concentration giving 150% activation of SIRT1; for Emax: percent maximum fold activation of SIRT1, read-out: Tryp % Fold Act
Method in brief: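 N-His-tagged SIRT1 (10 nM), expressed in E. coli, was incubated with 0.5 μM Ac-RHKK(Ac)W-NH2 peptide and 120 μM NAD+ for 25 min at 25 °C in HEPES pH 7.5 with […]. The reaction was stopped with formic acid and O-acetyl-ADP-ribose or deacetylated peptide was quantified by mass spectrometry. Results are given as EC1.5 and percent maximal activation relative to DMSO control.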

Tryp AVG EC1.5 (μM)	Emax [%]	Compound
B (EC1.5 1-25 μM)	≥ 150	O=C(Nc1cccnc1)N1c2nc(-c3cncc(C(F)(F)F)c3)ccc2N2C[C@@H](O)[C@H]1C2 [Example 705]
A (EC1.5<1 μM)	≥ 150	O=C(NCc1ncc(-c2cccc(NC(=O)N3c4nc(-c5cccc(C(F)(F)F)c5)ccc4N4CC[C@H]3C4)c2)o1)OCc1ccccc1 [Example 706]
A (EC1.5<1 μM)	≥ 150	O=C(CCCCCNC(=O)c1ccc2c(c1)C(=O)OC21c2ccc(O)cc2Oc2cc(O)ccc21)NCc1ncc(-c2cccc(NC(=O)N3c4nc(-c5cccc(C(F)(F)F)c5)ccc4N4CC[C@H]3C4)c2)o1 [Example 708]
A (EC1.5<1 μM)	≥ 150	O=C(Nc1cccc(-c2cnco2)c1)N1c2nc(-c3cncc(C(F)(F)F)c3)ccc2N2C[C@@H](O)[C@H]1C2 [Example 709]
A (EC1.5<1 μM)	≥ 150	CS(=O)(=O)c1cccc(-c2ccc3c(n2)N(C(=O)Nc2cccc(-c4cnco4)c2)[C@H]2CCN3C2)c1 [Example 710]
A (EC1.5<1 μM)	≥ 150	CCC(=O)c1cccc(NC(=O)N2c3nc(-c4cccc(C(F)(F)F)c4)ccc3N3CC[C@H]2C3)c1 [Example 714]
B (EC1.5 1-25 μM)	≥ 150	CS(=O)(=O)c1cccc(-c2ccc3c(n2)N(C(=O)Nc2cccc(-c4cnco4)n2)[C@H]2CCN3C2)c1 [Example 715]
B (EC1.5 1-25 μM)	≥ 150	O=C(Nc1cncc(-c2cnco2)c1)N1c2nc(-c3cncc(F)c3)ccc2N2CC[C@H]1C2 [Example 716]
A (EC1.5<1 μM)	≥ 150	O=C(Nc1cccc(-c2cnco2)c1)N1c2nc(N3CCC[C@@H](C(F)(F)F)C3)ccc2N2CC[C@H]1C2 [Example 717]
A (EC1.5<1 μM)	≥ 150	O=C(Nc1cccc(-c2cnco2)c1)N1c2nc(N3CCC[C@H](C(F)(F)F)C3)ccc2N2CC[C@H]1C2 [Example 718]
A (EC1.5<1 μM)	≥ 150	O=C(Nc1nnc(-c2ccccc2)o1)N1c2nc(-c3cccc(C(F)(F)F)c3)ccc2N2CC[C@H]1C2 [Example 719]
A (EC1.5<1 μM)	≥ 150	O=C(Nc1nnc(-c2ccccn2)o1)N1c2nc(-c3cccc(C(F)(F)F)c3)ccc2N2CC[C@H]1C2 [Example 720]
A (EC1.5<1 μM)	≥ 150	O=C(Nc1nnc(-c2cccnc2)o1)N1c2nc(-c3cccc(C(F)(F)F)c3)ccc2N2CC[C@H]1C2 [Example 721]
A (EC1.5<1 μM)	≥ 150	O=C(Nc1cccc(-c2cnco2)c1)N1c2nc(-c3cncc(F)c3)ccc2N2CC[C@H]1C2 [Example 722]
A (EC1.5<1 μM)	≥ 150	CS(=O)(=O)c1cccc(-c2ccc3c(n2)N(C(=O)Nc2cc(-c4cnco4)ccn2)[C@H]2CCN3C2)c1 [Example 723]
A (EC1.5<1 μM)	≥ 150	CS(=O)(=O)c1cccc(-c2ccc3c(n2)N(C(=O)Nc2cncc(-c4cnco4)c2)[C@H]2CCN3C2)c1 [Example 724]
A (EC1.5<1 μM)	≥ 150	NCc1ncc(-c2cccc(NC(=O)N3c4nc(-c5cccc(C(F)(F)F)c5)ccc4N4CC[C@H]3C4)c2)o1 [Example 725]
B (EC1.5 1-25 μM)	< 150	O=C(Nc1cc(-c2cnco2)ccn1)N1c2nc(-c3cncc(C(F)(F)F)c3)ccc2N2C[C@@H](O)[C@H]1C2 [Example 726]
A (EC1.5<1 μM)	≥ 150	O=C(Nc1cc(-c2cnco2)ccn1)N1c2nc(-c3cncc(F)c3)ccc2N2CC[C@H]1C2 [Example 727]
A (EC1.5<1 μM)	≥ 150	O=C(Nc1cccc(CN2CCNCC2)c1)N1c2nc(-c3cccc(C(F)(F)F)c3)ccc2N2CC[C@H]1C2 [Example 731]
